Results taken from US11331369B2, “Endoparasitic depsipeptides” (Zoetis Services LLC, priority 2017, dated 2022).

How the values were obtained:
Assay type in all cases: cell-based
[1] = test system: microfilariae of Dirofilaria immitis; test: Dirofilaria immitis, Microfilaria (DiMF) In vitro Assay; settings: 72 h, read-out: DiMF Minimum Effective Dose (MED), approximately 72 hours incubation, microfilariae assessed for survival or paralysis
[2] = test system: 4th stage larvae (L4) of Dirofilaria immitis; test: Dirofilaria immitis, L4 Stage (DiL4) In Vitro Assay; settings: Dirofilaria immitis, 72 h, read-out: DiL4 Minimum Effective Dose (MED), approximately 72 hours incubation; L4 larvae assessed for survival or paralysis
[3] = test system: third stage larvae of Haemonchus contortus; test: Haemonchus contortus L3 (HcL3) Assay; settings: 96 h, read-out: HcL3 Minimum Effective Dose (MED)

SMILES | minimal effective concentration [1] | minimal effective concentration [2] | minimal effective concentration [3]
CC(C)C[C@H]1C(=O)O[C@H](Cc2ccc(Cn3cc(Br)cn3)cc2)C(=O)N(C)[C@@H](CC(C)C)C(=O)O[C@H](C)C(=O)N(C)[C@@H](CC(C)C)C(=O)O[C@H](Cc2ccc(Cn3cccn3)cc2)C(=O)N(C)[C@@H](CC(C)C)C(=O)O[C@H](C)C(=O)N1C [Example 1a-16, (3S,6R,9S,12R,15S,18R,21S,24R)-6-(4-((1H-pyrazol-1-yl)methyl)benzyl)-18-(4-((4-bromo-1H-pyrazol-1-yl)methyl)benzyl)-3,9,15,21-tetraisobutyl-4,10,12,16,22,24-hexamethyl-1,7,13,19-tetraoxa-4,10,16,22-tetraazacyclotetracosan-2,5,8,11,14,17,20,23-octaone] | 0.001 to 0.01 µM | 0.0001 to 0.001 µM | 1 to 10 µM
Cc1cnn(Cc2ccc(C[C@H]3OC(=O)[C@H](CC(C)C)N(C)C(=O)[C@@H](C)OC(=O)[C@H](CC(C)C)N(C)C(=O)[C@@H](Cc4ccc(Cn5cc(I)cn5)cc4)OC(=O)[C@H](CC(C)C)N(C)C(=O)[C@@H](C)OC(=O)[C@H](CC(C)C)N(C)C3=O)cc2)c1 [Example 1a-20, (3S,6R,9S,12R,15S,18R,21S,24R)-6-(4-((4-iodo-1H-pyrazol-1-yl)methyl)benzyl)-3,9,15,21-tetraisobutyl-4,10,12,16,22,24-hexamethyl-18-(4-((4-methyl-1H-pyrazol-1-yl)methyl)benzyl)-1,7,13,19-tetraoxa-4,10,16,22-tetraazacyclotetracosan-2,5,8,11,14,17,20,23-octaone] | 0.001 to 0.01 µM | 0.0001 to 0.001 µM | 1 to 10 µM
CC(C)C[C@H]1C(=O)O[C@H](Cc2ccc(Cn3cc(I)cn3)cc2)C(=O)N(C)[C@@H](CC(C)C)C(=O)O[C@H](C)C(=O)N(C)[C@@H](CC(C)C)C(=O)O[C@H](Cc2ccc(Cn3cccn3)cc2)C(=O)N(C)[C@@H](CC(C)C)C(=O)O[C@H](C)C(=O)N1C [Example 1a-21, (3S,6R,9S,12R,15S,18R,21S,24R)-6-(4-((1H-pyrazol-1-yl)methyl)benzyl)-18-(4-((4-iodo-1H-pyrazol-1-yl)methyl)benzyl)-3,9,15,21-tetraisobutyl-4,10,12,16,22,24-hexamethyl-1,7,13,19-tetraoxa-4,10,16,22-tetraazacyclotetracosan-2,5,8,11,14,17,20,23-octaone] | 0.001 to 0.01 µM | 0.0001 to 0.001 µM | 1 to 10 µM
CC(C)C[C@H]1C(=O)O[C@H](Cc2ccc(Cn3nccc3C(F)(F)F)cc2)C(=O)N(C)[C@@H](CC(C)C)C(=O)O[C@H](C)C(=O)N(C)[C@@H](CC(C)C)C(=O)O[C@H](Cc2ccc(Cn3ccc(C(F)(F)F)n3)cc2)C(=O)N(C)[C@@H](CC(C)C)C(=O)O[C@H](C)C(=O)N1C [Example 1a-26, (3S,6R,9S,12R,15S,18R,21S,24R)-3,9,15,21-tetraisobutyl-4,6,10,16,18,22-hexamethyl-12-(4-((3-(trifluoromethyl)-1H-pyrazol-1-yl)methyl)benzyl)-24-(4-((5-(trifluoromethyl)-1H-pyrazol-1-yl)methyl)benzyl)-1,7,13,19-tetraoxa-4,10,16,22-tetraazacyclotetracosan-2,5,8,11,14,17,20,23-octaone] | 0.01 to 0.1 µM | 0.0001 to 0.001 µM | 1 to 10 µM
CC(C)C[C@H]1C(=O)O[C@H](Cc2ccc(Cn3nccc3Br)cc2)C(=O)N(C)[C@@H](CC(C)C)C(=O)O[C@H](C)C(=O)N(C)[C@@H](CC(C)C)C(=O)O[C@H](Cc2ccc(Cn3ccc(Br)n3)cc2)C(=O)N(C)[C@@H](CC(C)C)C(=O)O[C@H](C)C(=O)N1C [Example 1a-31, (3S,6R,9S,12R,15S,18R,21S,24R)-6-(4-((3-bromo-1H-pyrazol-1-yl)methyl)benzyl)-18-(4-((5-bromo-1H-pyrazol-1-yl)methyl)benzyl)-3,9,15,21-tetraisobutyl-4,10,12,16,22,24-hexamethyl-1,7,13,19-tetraoxa-4,10,16,22-tetraazacyclotetracosan-2,5,8,11,14,17,20,23-octaone] | 0.01 to 0.1 µM | 0.0001 to 0.001 µM | 1 to 10 µM
